Among the data in patent publication US8975417B2, “Pyrazolopyrrolidine derivatives and their use in the treatment of disease” (Novartis AG, priority 2013, dated 2015) are IC50 and IC (total growth inhibition) values, retold here.

Molecules are shown by their SMILES. Like-named read-outs stand apart in the source and are kept apart here.

Experiment [1] addresses His-Brd3(20-477) (Homo sapiens (Human), UniProt Q15059). Kind of experiment: TR-FRET in-vitro binding assay for BRD3. The conditions noted are these: biochemical. As to the method:
(§1) TR-FRET In-Vitro Binding Assays for BRD2, BRD3, and BRD4:
(§2) All assays were performed in 384-well microtiter plates. Each assay plate contained 8-point serial dilutions for 40 test compounds, plus 16 high- and 16 low controls. Liquid handling and incubation steps were done on an Innovadyne Nanodrop Express equipped with a robotic arm (Thermo CatX, Perkin Elmer/Caliper Twister II) and an incubator (Liconic STX40, Thermo Cytomat 2C450). The assay plates were prepared by addition of 50 nl per well of compound solution in 90% DMSO HummingBird nanodispenser (Zinsser Analytic). The assay was started by stepwise addition of 4.5 μL per well of bromo domain protein (50 mM HEPES, pH 7.5, 0.005% Tween20, 0.1% BSA, 50 mM NaCl, 45 nM His-Brd2(60-472) or 45 nM His-Brd3(20-477) or 45 nM His-Brd4(44-477) all proteins produced in-house) and 4.5 μL per well of peptide solution (50 mM HEPES, pH 7.5, 0.005% Tween20, 0.1% BSA, 50 mM NaCl, 60 nM acetyl-histone H4 (AcK 5, 8, 12, 16) (Biosyntan GmbH)). Reactions were incubated at 30° C. for 35 minutes. Subsequently 4.5 μL per well detection mix (50 mM HEPES, pH 7.5, 0.005% Tween20, 0.1% BSA, 50 mM NaCl, 3 nM Eu-labeled anti-His6 antibody, 21 nM streptavidin-allophycocyanin) were added. After minutes incubation at 30° C., plates were measured in a Perkin Elmer EnVision multilabel reader.
(§3) Test compounds were dissolved in DMSO (10 mM) and transferred into 1.4 mL flat bottom or V-shaped Matrix tubes carrying a unique 2D matrix. The stock solutions were stored at […] if not used immediately. For the test procedure the vials were defrosted and identified by a scanner whereby a working sheet was generated that guided the subsequent working steps. Compound dilutions were made in 96 well plates. This format enabled the assay of maximally […] at 8 concentrations (single points) including 4 reference compounds, if desired (known BET inhibitors from the prior art, for this and other assays of the type disclosed herein). The dilution protocol included the production of “pre-dilution plates”, “master plates” and “assay plates”.
(§4) Polypropylene 96-well plates were used as pre-dilution plates. […] All dilution steps were done on a HamiltonSTAR robot.
(§5) 30 μL of individual compound dilutions including standard compound and controls of the 4 “pre-dilution plates” were transferred into a 384-well “master plate” including the following concentrations 10000, […], 1000, 300, 100, 30, 10 and 3 μM, respectively in 90% of DMSO.
(§6) Identical “assay plates” were then prepared by pipetting 50 nL each of compound dilutions of the “master plates” into 384-well “assay plates” by means of a HummingBird 384-channel dispenser. These plates were used directly for the assay which was performed in a total volume of 13.55 μL.
Background: In TR-FRET formats the signal depends on donor and acceptor labels being close together.

Experiment [2] addresses His-Brd4(44-477) (Homo sapiens (Human), UniProt O60885). Kind of experiment: TR-FRET in-vitro binding assay for BRD4. The conditions noted are these: biochemical. As to the method: as §1, §2, §3, §4, §5, §6
Experiment [3] has as its system K-562 cells. In words: Cell growth inhibition assay (CellTiter-Glo), K-562. The experiment is classed as cell-based, human. How it is done:
(§7) Cell Growth Inhibition Assay
(§8) The human leukemia cell lines MV-4-11, THP-1 and K-562 were employed to characterize the effect of BET inhibitors on cellular proliferation and viability. Cells were obtained from the American Type Culture Collection (ATCC) and cultured at 37° C. in a humidified 5% CO2 incubator in the following media: MV-4-11: DMEM high glucose (Animed #1-26F01-I), 10% FCS (Animed #2-01F26-I), 4 mM L-Glutamine (Animed #5-10K50), 1 mM Sodium Pyruvate (Animed # G03625P), 1× Penicillin-Streptomycin (Animed # F12478P); K-562: Iscove's MEM (Animed #1-28F16-I), 10% FCS (Animed #2-01F26-I), 4 mM L-Glutamine (Animed #5-10K50), 1× Penicillin-Streptomycin (Animed # F12478P); THP-1: RPMI-1640 (Animed #1-41F01-I), 10% FCS (Animed #2-01F26-I), 2 mM L-Glutamine (Animed #5-10K50), 10 mM HEPES (Animed #5-31F100), 1 mM Sodium Pyruvate (Animed # G03625P), 1× Penicillin-Streptomycin (Animed # F12478P). The AML lines MV-4-11 and THP-1 are very sensitive to BET inhibitors and show massive cell death upon BET inhibition (Zuber et al., Nature, 478 (2011), 524-8). Compound-mediated suppression of cell proliferation/viability was assessed by quantification of cellular ATP levels using the CellTiter-Glo (CTG) reagent (Promega). Briefly, cells were seeded in 20 μl fresh medium into 384-well plates, followed by addition of 5 μL medium containing compound dilutions at 5-fold their final intended concentration. Dose-response effects were assessed by 3-fold serial dilutions of the test compound, starting at 10 μM. Following incubation of the cells for days at 37° C. and 5% CO2, the effect of inhibitors on cell viability was quantified following addition of 20 μl CTG and luminescence quantification (integration time: 100 ms) as per vendor manual, using a correspondingly equipped Tecan M200 multi-mode platereader (TECAN, Switzerland). For data analysis, the assay background value determined in wells containing medium, but no cells, was subtracted from all data points. To enable differentiation of cytotoxic from cytostatic compounds, the number of viable cells is assessed relative to that observed at the time of compound addition using a separate cell plate (day 0). The effect of a particular test compound concentration on cell proliferation/viability is expressed as percentage of the background- and day 0-corrected luminescence reading obtained for cells treated with vehicle only (DMSO, 0.1% final concentration), which is set as 100%, whereas that luminescence reading for wells containing medium is set as −100%. Compound concentrations leading to half-maximal (IC50) and total growth inhibition (TGI) were determined using standard four parameter curve fitting.
Background: ATP-based viability assays read luminescence as a measure of living cells.

Experiment [4] addresses His-Brd2(60-472) (Homo sapiens (Human), UniProt P25440). Kind of experiment: TR-FRET in-vitro binding assay for BRD2. Conditions: biochemical. How it is done: as §1, §2, §3, §4, §5, §6
Experiment [5] deals with His-CREBBP (1081-1197) bromodomain (Homo sapiens (Human), UniProt Q92793). Kind of experiment: AlphaScreen in-vitro binding assay for CREBBP. Conditions: biochemical. How it is done:
AlphaScreen In-Vitro Binding Assay for CREBBP
In order to assess bromodomain selectivity, we set up a binding assay using the bromodomain encoded by the CREBBP gene. […] Reactions were incubated at 30° C. for 35 minutes. Subsequently 4.5 μL per well detection mix (50 mM HEPES, pH 7.5, 0.005% Tween20, 0.02% BSA, 150 mM NaCl, 45 μg/ml Ni-chelate acceptor beads, 45 μg/mL streptavidin-donor beads) (Perkin Elmer)) were added. After 60 minutes incubation at room temperature, plates were measured in a Perkin Elmer EnVision multilabel reader. IC50 values were determined from percent inhibition values at different compound concentrations by non-linear regression analysis.
as §3, §4
These plates were used directly for the assay which was performed in a total volume of 13.55 μL.
In general terms: Bead proximity is the source of the signal in Alpha formats.

Experiment [6] concerns THP-1 cells. In words: Cell growth inhibition assay (CellTiter-Glo), THP-1. It counts as cell-based. The conditions noted are these: Homo sapiens, read-out: THP-1 TGI. How it is done: as §7, §8
Experiment [7] concerns MV-4-11 cells. Kind of experiment: Cell growth inhibition assay (CellTiter-Glo), MV-4-11. It counts as cell-based. Conditions: Homo sapiens, MV4-11, read-out: MV-4-11 TGI. As to the method:
as §7, §8

Where [8] appears, read: Homo sapiens, K562, read-out: K-562 TGI.

His-CREBBP (1081-1197) bromodomain, sequence (Q92793 1081-1197): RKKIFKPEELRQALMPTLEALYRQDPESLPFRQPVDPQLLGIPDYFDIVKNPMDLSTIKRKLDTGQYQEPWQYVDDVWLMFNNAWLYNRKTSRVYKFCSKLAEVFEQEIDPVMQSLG
His-Brd2(60-472), sequence (P25440 60-472): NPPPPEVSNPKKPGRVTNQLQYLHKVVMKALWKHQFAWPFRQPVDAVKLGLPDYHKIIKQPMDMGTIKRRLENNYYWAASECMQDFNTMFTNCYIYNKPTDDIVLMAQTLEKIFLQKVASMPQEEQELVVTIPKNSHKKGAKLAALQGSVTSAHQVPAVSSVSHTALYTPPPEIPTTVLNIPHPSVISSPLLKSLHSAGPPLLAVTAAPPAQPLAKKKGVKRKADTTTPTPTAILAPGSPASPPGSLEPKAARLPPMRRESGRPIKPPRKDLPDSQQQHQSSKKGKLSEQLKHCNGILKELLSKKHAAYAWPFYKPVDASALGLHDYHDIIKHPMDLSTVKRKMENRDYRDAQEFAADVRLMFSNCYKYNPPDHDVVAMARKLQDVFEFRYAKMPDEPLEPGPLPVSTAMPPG
His-Brd3(20-477), sequence (Q15059 20-477): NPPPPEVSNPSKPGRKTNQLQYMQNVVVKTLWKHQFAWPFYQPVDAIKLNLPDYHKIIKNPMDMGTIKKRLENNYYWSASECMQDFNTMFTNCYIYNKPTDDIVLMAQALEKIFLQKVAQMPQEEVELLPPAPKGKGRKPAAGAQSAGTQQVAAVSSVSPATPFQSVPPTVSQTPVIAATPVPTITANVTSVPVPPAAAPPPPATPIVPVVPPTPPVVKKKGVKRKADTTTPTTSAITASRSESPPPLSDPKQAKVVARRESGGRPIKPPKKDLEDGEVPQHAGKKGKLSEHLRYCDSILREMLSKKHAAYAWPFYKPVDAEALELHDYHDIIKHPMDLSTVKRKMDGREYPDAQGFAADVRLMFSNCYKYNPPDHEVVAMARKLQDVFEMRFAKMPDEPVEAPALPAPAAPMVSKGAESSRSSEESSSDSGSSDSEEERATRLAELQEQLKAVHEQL

As usually defined, the IC50 is the concentration at which inhibition is half-maximal. A high value points to a need for much substance. For the compound `CNc1cc(N2C(=O)c3c(c(C)nn3C3CC3)C2c2ccc(Cl)cc2)nn2c(C)nnc12` (racemic) [Example 113, 4-(4-chlorophenyl)-1-cyclopropyl-3-methyl-5-(3-methyl-8-(methylamino)-[1,2,4]triazolo[4,3-b]pyridazin-6-yl)-4,5-dihydropyrrolo[3,4-c]pyrazol-6(1H)-one], the IC50 in experiment [1] is 120 nM; in experiment [2], 67 nM; in experiment [4], 86 nM; in experiment [5], over 37000 nM. Besides, in experiment [3] (read-out: K-562 TGI), the IC (total growth inhibition) is over 10 µM.
With `Cc1nn(C2CC2)c2c1C(c1ccc(Cl)cc1)N(c1cc(C)c3nnn(C)c3c1)C2=O` (stereo not shown) [Example 85, 4-(4-chlorophenol)-1-cyclopropyl-5-(1,4-dimethyl-1H-benzo[d][1,2,3]triazol-6-yl)-3-methyl-4,5-dihydropyrrolo[3,4-c]pyrazol-6(1H)-one], the IC50 in experiment [1] was found to be 16 nM; in experiment [2] it was 14 nM; in experiment [4], 24 nM; in experiment [5] it was 8300 nM.
Regarding `Cc1nn(C2CC2)c2c1[C@H](c1ccc(Cl)cc1)N(c1cc(C)c3nnc(C)n3c1)C2=O` [Example 118, (S)-4-(4-chlorophenyl)-1-cyclopropyl-5-(3,8-dimethyl-[1,2,4]triazolo[4,3-a]pyridin-6-yl)-3-methyl-4,5-dihydropyrrolo[3,4-c]pyrazol-6(1H)-one], the IC (total growth inhibition) in experiment [6] was over 10 µM; in experiment [3] (setting [8]), over 10 µM; in experiment [7], 3.35 µM.
With `Cc1cc(N2C(=O)c3nn(C(C)C)c(C)c3C2c2ccc(Cl)cc2F)cn2c(C)nnc12` (stereo not shown) [Example 169, 4-(4-chloro-2-fluorophenyl)-5-(3,8-dimethyl-[1,2,4]triazolo[4,3-a]pyridin-6-yl)-2-isopropyl-3-methyl-4,5-dihydropyrrolo[3,4-c]pyrazol-6(2H)-one], the IC (total growth inhibition) in experiment [6] is 0.121 µM; in experiment [3] (setting [8]), over 10 µM; in experiment [7], 0.0576 µM.
Turning to `Cc1nn(C2CC2)c2c1[C@@H](c1ccc(F)cc1F)N(c1cc(C)c3nnc(C)n3c1)C2=O` [Example 188, (S)-1-cyclopropyl-4-(2,4-difluorophenyl)-5-(3,8-dimethyl-[1,2,4]triazolo[4,3-a]pyridin-6-yl)-3-methyl-4,5-dihydropyrrolo[3,4-c]pyrazol-6(1H)-one], the IC50 amounted to 40 nM in experiment [1], 31 nM in experiment [2], 41 nM in experiment [4] and 19000 nM in experiment [5].
For `Cc1nn(C2CC2)c2c1[C@@H](c1ccc(Cl)cc1F)N(c1cc(C)c3nnc(C)n3c1)C2=O` [Example 190, (S)-4-(4-chloro-2-fluorophenyl)-1-cyclopropyl-5-(3,8-dimethyl-[1,2,4]triazolo[4,3-a]pyridin-6-yl)-3-methyl-4,5-dihydropyrrolo[3,4-c]pyrazol-6(1H)-one] the same measures were 25 nM, 22 nM, 28 nM and 12000 nM.
For `CCn1nc(C)c2c1C(=O)N(c1cc(C)c3nnc(C)n3c1)[C@@H]2c1ccc(F)cc1F` [Example 191, (S)-4-(2,4-difluorophenyl)-5-(3,8-dimethyl-[1,2,4]triazolo[4,3-a]pyridin-6-yl)-1-ethyl-3-methyl-4,5-dihydropyrrolo[3,4-c]pyrazol-6(1H)-one] the same measures were 31 nM, 25 nM, 69 nM and 10000 nM.
For `CCn1nc(C)c2c1C(=O)N(c1cc(C)c3nnc(C)n3c1)[C@@H]2c1ccc(Cl)cc1F` [Example 192, (S)-4-(4-chloro-2-fluorophenyl)-5-(3,8-dimethyl-[1,2,4]triazolo[4,3-a]pyridin-6-yl)-1-ethyl-3-methyl-4,5-dihydropyrrolo[3,4-c]pyrazol-6(1H)-one], the concentration for half-maximal inhibition (IC50) in experiment [1] amounted to 44 nM; in experiment [2], 39 nM; in experiment [4] it was 53 nM; in experiment [5] it was 7100 nM.
`COc1ncccc1-n1nc2c(c1C)C(c1ccc(F)cc1F)N(c1cc(C)c3nnc(C)n3c1)C2=O` (stereo not shown) [Example 193, 4-(2,4-difluorophenyl)-5-(3,8-dimethyl-[1,2,4]triazolo[4,3-a]pyridin-6-yl)-2-(2-methoxypyridin-3-yl)-3-methyl-4,5-dihydropyrrolo[3,4-c]pyrazol-6(2H)-one]: the IC (total growth inhibition) in experiment [6] was 0.141 µM; in experiment [3] (setting [8]), over 10 µM; in experiment [7] it was 0.0985 µM.
For the compound `Cc1[nH]nc2c1C(c1ccc(Cl)cc1F)N(c1cc(C)c(=O)n(C)c1)C2=O` (stereo not shown) [Example 196, 4-(4-chloro-2-fluorophenyl)-5-(1,5-dimethyl-6-oxo-1,6-dihydropyridin-3-yl)-3-methyl-4,5-dihydropyrrolo[3,4-c]pyrazol-6(2H)-one], the IC (total growth inhibition) in experiment [6] is 0.53 µM; in experiment [3] (setting [8]) it was over 10 µM; in experiment [7], 0.266 µM.
